Test results: US7084275B2, “Stereospecific enrichment of heterocyclic enantiomers” (R. T. Alamo Ventures I, LLC, priority 2001, dated 2006)

Columns and labels:
[1] = test system: PDE1 partially purified from bovine heart; assay: PDE1 biochemical enzyme assay ([3H]cAMP hydrolysis); details: 100 μM test substance; 1.0 μM [3H]cAMP, calmodulin, Tris pH 7.5, 20 min, 30° C.
From the text: (§1) In this example, racemic flosequinan, (R)-(+)-flosequinan, and (S)-(−)-flosequinan were subjected to biochemical enzyme assays to determine their respective percent inhibition of a variety of phosphodiesterases (PDE1-PDE6). The (R)-(+)-flosequinan and (S)-(−)-flosequinan used in this example was resolved by high-performance liquid chromatography (HPLC) as follows. A 5.0 g sample of a racemic mixture of flosequinan was resolved over a 10 cm ID×50 cm L CHIRALCEL OD HPLC column (Chiral Technologies, Exton, Pa.) at 25° C. and with a flow rate of 1.0 ml/minute such that the column pressure was 37 bar. The mobile phase employed was 100% methanol and the detection of the mixture was performed at 270 nm. […] A total of 2.1 g of the (−) enantiomer having an optical purity greater than 99% was produced. A total of 2.3 g of the (+) enantiomer having an optical purity greater than 99% was produced.
(§2) PDE1: PDE1 partially purified from bovine heart was used. A racemic mixture of flosequinan, and each enantiomer of flosequinan, all at a molar concentration of 100 μM, were independently incubated with 13 μg PDE1 enzyme, 1.0 μM [^3H]cAMP and Cal2/calmodulin in Tris buffer pH 7.5 for 20 minutes at 30° C. The reaction was terminated by boiling for 2 minutes, and the resulting AMP was converted to adenosine by addition of 10 mg/ml snake venom nucleotidase and further incubation at 30° C. for 10 minutes. Unhydrolyzed cAMP was bound to AGI-X2 resin, and the remaining [^3H]adenosine in the aqueous phase was quantitated by scintillation counting.

[2] = target: T1, PDE2 partially purified from human platelets (Homo sapiens, UniProt O00408); assay: PDE2 biochemical enzyme assay ([3H]cAMP hydrolysis); details: 100 μM test substance; 25 μM cAMP, Tris pH 7.5, 20 min, 30° C.
T1 construct: PDE2 partially purified from human platelets was used; from tissue; host or cells: human platelets
From the text: as §1
as §2, with “PDE2: PDE2” for “PDE1: PDE1”, “human platelets” for “bovine heart”, “23” for “13”, “PDE2” for “PDE1”, “25 μM cAMP containing 0.05” for “1.0”, “[^3H]cAMP” for “[^3H]cAMP and Cal2/calmodulin”

[3] = test system: PDE4 partially purified from human U-937 pronocytic cells; assay: PDE4 biochemical enzyme assay ([3H]cAMP hydrolysis); details: 100 μM test substance; 1 μM cAMP, Tris pH 7.5, 20 min, 30° C.
From the text: as §1
as §2, with “PDE4: PDE4” for “PDE1: PDE1”, “human U-937 pronocytic cells” for “bovine heart”, “20” for “13”, “PDE4 enzyme and 1 μM cAMP containing 0.01” for “PDE1 enzyme, 1.0”, “[^3H]cAMP” for “[^3H]cAMP and Cal2/calmodulin”

[4] = target: T2, PDE5 partially purified from human platelets (Homo sapiens, UniProt O76074); assay: PDE5 biochemical enzyme assay ([3H]cGMP hydrolysis); details: 100 μM test substance; 1 μM cGMP, Tris pH 7.5, 20 min, 30° C.
T2 construct: PDE5 partially purified from human platelets was used; from tissue; host or cells: human platelets
From the text: as §1
PDE5: PDE5 partially purified from human platelets was used. A racemic mixture of flosequinan, and each enantiomer of flosequinan, all at a molar concentration of 100 μM, were independently incubated with 120 μg PDE5 enzyme and 1 μM cGMP containing 0.01 μM [^3H]cGMP in Tris buffer pH 7.5 for 20 minutes at 30° C. The reaction was terminated by boiling for 2 minutes, and the resulting GMP was converted to guanosine by addition of 10 mg/ml snake venom nucleotidase and further incubation at 30° C. for 10 minutes. Unhydrolyzed cGMP was bound to AGI-X2 resin, and the remaining [^3H]guanosine in the aqueous phase was quantitated by scintillation counting.

[5] = target: T3, PDE3 partially purified from human platelets (Homo sapiens, UniProt Q14432); assay: PDE3 biochemical enzyme assay ([3H]cAMP hydrolysis); details: 100 μM test substance; 1 μM cAMP, Tris pH 7.5, 20 min, 30° C.
T3 construct: PDE3 partially purified from human platelets was used; from tissue; host or cells: human platelets
From the text: as §1
PDE3: PDE3 partially purified from human platelets was used. A racemic mixture of flosequinan, and each enantiomer of flosequinan, all at a molar concentration of 100 μM, were independently incubated with 13 μg PDE3 enzyme and 1 μM cAMP containing 0.01 μM [^3H]cAMP in Tris buffer pH 7.5 for 20 minutes at 30° C. […] Unhydrolyzed cAMP was bound to AGI-X2 resin, and the remaining [^3H]adenosine in the aqueous phase was quantitated by scintillation counting.

[6] = target: T4, PDE6 partially purified from bovine retinal rod and activated by trypsin (Bos taurus, UniProt P11541+P23439); assay: PDE6 biochemical enzyme assay ([3H]cGMP hydrolysis); details: 100 μM test substance; 100 μM cGMP, Tris pH 7.5, 20 min, 30° C.
T4 construct: from tissue; host or cells: bovine retinal rod
T4 sequence (P11541 2-856 limits assumed): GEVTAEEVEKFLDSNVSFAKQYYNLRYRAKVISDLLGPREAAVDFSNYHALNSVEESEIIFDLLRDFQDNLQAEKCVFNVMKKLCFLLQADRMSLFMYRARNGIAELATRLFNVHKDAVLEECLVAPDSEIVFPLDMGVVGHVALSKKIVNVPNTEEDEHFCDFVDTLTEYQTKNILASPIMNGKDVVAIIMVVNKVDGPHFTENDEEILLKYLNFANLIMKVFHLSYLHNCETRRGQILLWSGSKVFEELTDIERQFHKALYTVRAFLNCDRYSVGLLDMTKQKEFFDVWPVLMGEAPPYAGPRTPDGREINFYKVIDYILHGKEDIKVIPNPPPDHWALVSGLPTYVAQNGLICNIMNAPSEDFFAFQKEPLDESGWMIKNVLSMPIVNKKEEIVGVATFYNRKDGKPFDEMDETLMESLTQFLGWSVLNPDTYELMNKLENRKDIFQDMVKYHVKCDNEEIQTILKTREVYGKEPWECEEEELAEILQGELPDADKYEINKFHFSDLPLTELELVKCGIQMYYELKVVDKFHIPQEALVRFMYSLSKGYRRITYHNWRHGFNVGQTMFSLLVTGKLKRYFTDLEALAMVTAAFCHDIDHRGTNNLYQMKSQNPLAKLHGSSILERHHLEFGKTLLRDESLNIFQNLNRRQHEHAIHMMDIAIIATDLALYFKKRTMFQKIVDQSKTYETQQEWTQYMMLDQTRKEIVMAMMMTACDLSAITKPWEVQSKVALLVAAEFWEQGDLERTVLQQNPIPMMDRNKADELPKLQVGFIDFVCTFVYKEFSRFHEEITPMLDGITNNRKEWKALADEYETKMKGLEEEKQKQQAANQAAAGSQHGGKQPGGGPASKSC
T4 sequence (P23439 2-850 limits assumed): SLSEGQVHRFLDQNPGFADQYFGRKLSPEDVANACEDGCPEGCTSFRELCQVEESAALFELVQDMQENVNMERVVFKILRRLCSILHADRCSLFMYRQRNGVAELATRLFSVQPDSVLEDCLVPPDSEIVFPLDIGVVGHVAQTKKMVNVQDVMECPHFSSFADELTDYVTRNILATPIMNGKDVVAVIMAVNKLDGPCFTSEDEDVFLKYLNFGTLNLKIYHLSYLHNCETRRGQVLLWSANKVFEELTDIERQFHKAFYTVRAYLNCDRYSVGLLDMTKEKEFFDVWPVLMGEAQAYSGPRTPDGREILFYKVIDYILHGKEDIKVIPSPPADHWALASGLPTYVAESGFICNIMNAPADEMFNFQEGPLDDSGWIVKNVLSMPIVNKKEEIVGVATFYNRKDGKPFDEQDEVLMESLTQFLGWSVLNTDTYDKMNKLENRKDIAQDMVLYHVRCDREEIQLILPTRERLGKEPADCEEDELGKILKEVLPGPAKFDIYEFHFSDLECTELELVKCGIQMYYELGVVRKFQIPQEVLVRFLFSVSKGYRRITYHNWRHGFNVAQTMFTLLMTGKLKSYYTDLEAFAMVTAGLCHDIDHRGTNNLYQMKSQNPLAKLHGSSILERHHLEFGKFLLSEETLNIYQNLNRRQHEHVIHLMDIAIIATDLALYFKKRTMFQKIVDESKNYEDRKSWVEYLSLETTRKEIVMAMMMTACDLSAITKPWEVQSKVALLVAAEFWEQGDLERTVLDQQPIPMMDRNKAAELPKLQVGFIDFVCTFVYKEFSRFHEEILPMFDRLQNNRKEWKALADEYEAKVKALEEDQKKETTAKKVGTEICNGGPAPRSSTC
From the text: as §1
PDE6: PDE6 partially purified from bovine retinal rod and activated by trypsin was used. A racemic mixture of flosequinan, and each enantiomer of flosequinan, all at a molar concentration of 100 μM, were independently incubated with 0.2 μg/ml active PDE6 and 100 μM cGMP containing 0.1 μM [^3H]cGMP in Tris buffer pH 7.5 for 20 minutes at 30° C. […] Unhydrolyzed cGMP was bound to AGI-X2 resin, and [^3H]guanosine remaining in the aqueous phase was quantitated by scintillation counting.

T1 sequence (O00408 whole entry): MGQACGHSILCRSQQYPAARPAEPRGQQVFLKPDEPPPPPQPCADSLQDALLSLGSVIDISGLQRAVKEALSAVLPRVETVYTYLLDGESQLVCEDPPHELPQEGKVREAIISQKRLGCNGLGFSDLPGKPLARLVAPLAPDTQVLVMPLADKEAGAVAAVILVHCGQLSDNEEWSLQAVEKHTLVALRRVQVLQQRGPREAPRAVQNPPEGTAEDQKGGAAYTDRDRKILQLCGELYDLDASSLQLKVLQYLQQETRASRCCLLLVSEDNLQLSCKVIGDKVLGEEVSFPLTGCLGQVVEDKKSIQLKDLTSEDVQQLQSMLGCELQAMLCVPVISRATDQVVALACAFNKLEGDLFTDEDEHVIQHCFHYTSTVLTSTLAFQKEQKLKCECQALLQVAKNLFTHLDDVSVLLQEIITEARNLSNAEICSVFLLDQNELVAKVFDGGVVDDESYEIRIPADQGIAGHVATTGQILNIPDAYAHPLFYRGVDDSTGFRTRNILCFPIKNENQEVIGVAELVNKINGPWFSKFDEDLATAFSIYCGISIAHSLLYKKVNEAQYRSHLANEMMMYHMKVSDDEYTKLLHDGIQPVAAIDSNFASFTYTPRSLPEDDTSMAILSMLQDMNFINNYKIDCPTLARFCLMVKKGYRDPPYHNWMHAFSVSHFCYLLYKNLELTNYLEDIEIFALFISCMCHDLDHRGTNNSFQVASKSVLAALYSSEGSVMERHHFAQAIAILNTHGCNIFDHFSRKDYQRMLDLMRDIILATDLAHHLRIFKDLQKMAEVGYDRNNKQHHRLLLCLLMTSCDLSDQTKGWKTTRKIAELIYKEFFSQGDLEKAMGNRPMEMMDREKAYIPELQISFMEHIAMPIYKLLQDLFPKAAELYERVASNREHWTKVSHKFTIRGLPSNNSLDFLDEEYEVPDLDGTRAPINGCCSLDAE
T3 sequence (Q14432 whole entry): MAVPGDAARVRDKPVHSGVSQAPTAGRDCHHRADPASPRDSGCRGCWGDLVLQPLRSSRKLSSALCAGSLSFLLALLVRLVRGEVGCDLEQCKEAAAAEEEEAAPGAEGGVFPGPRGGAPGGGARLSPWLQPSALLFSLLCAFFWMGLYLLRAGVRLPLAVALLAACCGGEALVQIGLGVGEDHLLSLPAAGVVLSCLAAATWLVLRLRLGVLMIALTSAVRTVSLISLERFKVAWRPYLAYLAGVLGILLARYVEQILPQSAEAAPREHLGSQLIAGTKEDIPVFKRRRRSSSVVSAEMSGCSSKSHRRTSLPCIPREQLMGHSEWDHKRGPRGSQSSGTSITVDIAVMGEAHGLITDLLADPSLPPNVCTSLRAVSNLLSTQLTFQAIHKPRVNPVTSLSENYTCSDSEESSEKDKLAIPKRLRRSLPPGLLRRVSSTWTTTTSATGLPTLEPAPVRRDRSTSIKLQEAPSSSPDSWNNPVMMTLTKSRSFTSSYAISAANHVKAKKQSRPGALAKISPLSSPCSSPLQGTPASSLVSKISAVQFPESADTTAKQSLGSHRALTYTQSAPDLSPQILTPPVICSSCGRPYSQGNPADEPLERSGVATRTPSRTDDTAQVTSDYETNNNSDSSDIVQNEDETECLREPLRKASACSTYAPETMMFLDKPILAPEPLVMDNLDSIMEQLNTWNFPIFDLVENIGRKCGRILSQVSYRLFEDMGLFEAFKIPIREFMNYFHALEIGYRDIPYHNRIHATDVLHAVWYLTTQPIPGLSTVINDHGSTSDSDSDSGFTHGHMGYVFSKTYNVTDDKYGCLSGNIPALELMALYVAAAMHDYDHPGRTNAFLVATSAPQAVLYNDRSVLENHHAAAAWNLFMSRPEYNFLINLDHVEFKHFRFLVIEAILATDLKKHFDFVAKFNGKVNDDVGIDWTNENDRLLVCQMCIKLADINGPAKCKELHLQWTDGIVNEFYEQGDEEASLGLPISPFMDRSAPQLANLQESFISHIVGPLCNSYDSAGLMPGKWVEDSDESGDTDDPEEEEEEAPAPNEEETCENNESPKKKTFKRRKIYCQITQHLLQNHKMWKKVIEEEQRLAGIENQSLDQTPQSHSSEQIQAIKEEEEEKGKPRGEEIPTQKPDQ

Compound	% Inhibition of PDE1 [1]	inhibition at 100 µM [2]	% Inhibition of PDE4 [3]	inhibition at 100 µM [4]	inhibition at 100 µM [5]	% Inhibition of PDE6 [6]
Cn1cc([S+](C)[O-])c(=O)c2ccc(F)cc21 (racemic) [racemic mixture of flosequinan, 7-fluoro-1-methyl-3-methylsulfinyl-4-quinolone, reference compound]	31%	18%	24%	11%	–	–
Cn1cc([S@@+](C)[O-])c(=O)c2ccc(F)cc21 [(+)-flosequinan, (R)-(+)-7-fluoro-1-methyl-3-methylsulfinyl-4-quinolone]	28%	18%	6%	17%	32%	22%
Cn1cc([S@+](C)[O-])c(=O)c2ccc(F)cc21 [(−)-flosequinan, (S)-(−)-7-fluoro-1-methyl-3-methylsulfinyl-4-quinolone]	11%	13%	1%	10%	5%	–
